This note sets out measurements from patent publication US20240398828A1, “HETERO-ATOM CONTAINING COMPOUNDS AND USES THEREOF” (Kumquat Biosciences Inc., priority 2021, published 2024).

In one experiment the target is T1, PTPN1 (i.e., PTP1B) (Homo sapiens, UniProt P18031).
T1 sequence (P18031 1-435): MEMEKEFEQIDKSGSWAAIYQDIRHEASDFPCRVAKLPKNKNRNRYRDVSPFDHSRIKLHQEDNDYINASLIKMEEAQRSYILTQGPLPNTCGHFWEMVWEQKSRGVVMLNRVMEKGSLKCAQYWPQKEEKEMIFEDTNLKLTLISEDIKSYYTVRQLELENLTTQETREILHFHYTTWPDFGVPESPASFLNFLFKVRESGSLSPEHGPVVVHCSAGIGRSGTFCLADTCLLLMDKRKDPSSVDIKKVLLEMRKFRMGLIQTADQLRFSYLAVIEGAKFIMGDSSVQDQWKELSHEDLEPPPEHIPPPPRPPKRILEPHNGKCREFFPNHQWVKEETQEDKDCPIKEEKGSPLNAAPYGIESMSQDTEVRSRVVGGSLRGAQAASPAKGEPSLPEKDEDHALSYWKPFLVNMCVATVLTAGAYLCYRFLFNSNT
Briefly: Phosphatase activity assay (DiFMUP substrate), PTP1B. The experiment is classed as biochemical. The settings on record: compounds binned ≤1 uM or >1 uM. In a few lines:
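Read-out is continuous fluorescence of DiFMU (360 nm excitation, 450 nm emission) over about 15-30 minutes, with DiFMUP substrate at the enzyme's independently determined Km (PTPN2 approx. 45 μM final). Buffer: 50 mM HEPES pH 7.5, 150 mM NaCl, 0.5 mM EDTA, 1 mM DTT, 0.001% Tween-20, room temperature; initial rates versus 10-point dilution fitted for IC50, at least duplicate.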

The target in a further experiment is T2, PTPN2 (i.e., TC-PTP) (Homo sapiens, UniProt P17706).
T2 sequence (P17706 1-415): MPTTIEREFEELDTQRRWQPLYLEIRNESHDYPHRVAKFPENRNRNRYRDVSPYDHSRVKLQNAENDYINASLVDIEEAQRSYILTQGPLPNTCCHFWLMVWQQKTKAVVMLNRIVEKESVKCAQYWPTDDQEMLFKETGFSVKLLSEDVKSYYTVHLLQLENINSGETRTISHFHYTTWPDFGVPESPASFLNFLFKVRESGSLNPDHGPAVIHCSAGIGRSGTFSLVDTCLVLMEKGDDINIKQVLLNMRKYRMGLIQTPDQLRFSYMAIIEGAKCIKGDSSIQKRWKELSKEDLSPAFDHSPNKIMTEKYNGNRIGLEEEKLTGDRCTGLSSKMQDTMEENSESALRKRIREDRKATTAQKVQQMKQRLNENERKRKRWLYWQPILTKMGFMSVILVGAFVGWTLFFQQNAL
Briefly: Phosphatase activity assay (DiFMUP substrate), PTPN2. The experiment is classed as biochemical. As to conditions: compounds binned ≤1 uM or >1 uM. In a few lines: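 Enzyme (e.g. PTPN2 0.025 ng/ul) mixed about 2 min with compound at 10 serial concentrations in 50 mM HEPES pH 7.5, 150 mM NaCl, 0.5 mM EDTA, 1 mM DTT, 0.001% Tween-20 at room temperature. DiFMUP added at each enzyme's Km (about 45 μM for PTPN2). DiFMU fluorescence (ex 360/em 450 nm) followed 15-30 min; IC50 from 4-parameter fit of rates.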

In general, IC50 refers to the point on the concentration scale where inhibition reaches its midpoint. On to `CC(C)CCN1CCCC(c2ccc(O)c(N3CC(=O)NS3(=O)=O)c2F)C1` (stereo not drawn) [Compound 198, 5-(2-fluoro-6-hydroxy-3-(1-isopentylpiperidin-3-yl)phenyl)-1,2,5-thiadiazolidin-3-one 1,1-dioxide], for which the IC50 on PTPN1 (i.e., PTP1B) is not above 1000 nM; on PTPN2 (i.e., TC-PTP), more than 1000 nM.

For `CC1NCC=C1c1ccc(O)c(N2CC(=O)NS2(=O)=O)c1F` (stereo not drawn) [Compound 512, 5-(2-fluoro-6-hydroxy-3-(2-methyl-2,5-dihydro-1H-pyrrol-3-yl)phenyl)-1,2,5-thiadiazolidin-3-one 1,1-dioxide], the IC50 at PTPN1 (i.e., PTP1B) was more than 1000 nM; on PTPN2 (i.e., TC-PTP), more than 1000 nM.

Take `O=C1CN(c2c(O)ccc(-c3cc(C4CCOCC4)n[nH]3)c2F)S(=O)(=O)N1` [Compound 420, 5-(2-fluoro-6-hydroxy-3-(3-(tetrahydro-2H-pyran-4-yl)-1H-pyrazol-5-yl)phenyl)-1,2,5-thiadiazolidin-3-one 1,1-dioxide]: the IC50 at PTPN1 (i.e., PTP1B) is not above 1000 nM; at PTPN2 (i.e., TC-PTP), not above 1000 nM.

For `CC1CC=C(c2ccc(O)c(N3CC(=O)NS3(=O)=O)c2F)CN1` (stereo not drawn) [Compound 470, 5-(2-fluoro-6-hydroxy-3-(6-methyl-1,2,5,6-tetrahydropyridin-3-yl)phenyl)-1,2,5-thiadiazolidin-3-one 1,1-dioxide], the IC50 on PTPN1 (i.e., PTP1B) was not above 1000 nM; at PTPN2 (i.e., TC-PTP) it was not above 1000 nM.

`O=C1CN(c2c(O)ccc(-c3cnn(C4CC4)c3)c2Cl)S(=O)(=O)N1` [Compound 260, 5-(2-chloro-3-(1-cyclopropyl-1H-pyrazol-4-yl)-6-hydroxyphenyl)-1,2,5-thiadiazolidin-3-one 1,1-dioxide]: the IC50 on PTPN1 (i.e., PTP1B) was not above 1000 nM; on PTPN2 (i.e., TC-PTP), not above 1000 nM.

With `O=C1CN(c2c(O)ccc(-c3cn(C4CC4)nc3F)c2F)S(=O)(=O)N1` [Compound 440, 5-(3-(1-cyclopropyl-3-fluoro-1H-pyrazol-4-yl)-2-fluoro-6-hydroxyphenyl)-1,2,5-thiadiazolidin-3-one 1,1-dioxide], the IC50 at PTPN1 (i.e., PTP1B) is not above 1000 nM; on PTPN2 (i.e., TC-PTP) it was not above 1000 nM.

For `NC(=O)Cc1cc(-c2ccc(O)c(N3CC(=O)NS3(=O)=O)c2F)[nH]n1` [Compound 520, 2-(5-(3-(1,1-dioxido-4-oxo-1,2,5-thiadiazolidin-2-yl)-2-fluoro-4-hydroxyphenyl)-1H-pyrazol-3-yl)acetamide], the IC50 on PTPN1 (i.e., PTP1B) is not above 1000 nM; at PTPN2 (i.e., TC-PTP) it was not above 1000 nM.

Take `N#Cc1ccccc1-n1cnc(-c2ccc(O)c(N3CC(=O)NS3(=O)=O)c2F)c1` [Compound 298, 2-(4-(3-(1,1-dioxido-4-oxo-1,2,5-thiadiazolidin-2-yl)-2-fluoro-4-hydroxyphenyl)-1H-imidazol-1-yl)benzonitrile]: the IC50 was not above 1000 nM on PTPN1 (i.e., PTP1B) and not above 1000 nM at PTPN2 (i.e., TC-PTP).

Take `O=C1CN(c2c(O)ccc(-c3cnn(C4CCCCCC4)c3)c2F)S(=O)(=O)N1` [Compound 360, 5-(3-(1-cycloheptyl-1H-pyrazol-4-yl)-2-fluoro-6-hydroxyphenyl)-1,2,5-thiadiazolidin-3-one 1,1-dioxide]: the IC50 on PTPN1 (i.e., PTP1B) was not above 1000 nM; at PTPN2 (i.e., TC-PTP), not above 1000 nM.

For `CS(=O)(=O)n1nc(-c2ccc(O)c(N3CC(=O)NS3(=O)=O)c2F)cc1C1CC1` [Compound 498, 5-(3-(5-cyclopropyl-1-(methylsulfonyl)-1H-pyrazol-3-yl)-2-fluoro-6-hydroxyphenyl)-1,2,5-thiadiazolidin-3-one 1,1-dioxide], the IC50 was not above 1000 nM on PTPN1 (i.e., PTP1B) and not above 1000 nM at PTPN2 (i.e., TC-PTP).

Take `Cc1cc(O)c(N2CC(=O)NS2(=O)=O)cc1-c1cnn(C)c1` [Compound 358, 5-(2-hydroxy-4-methyl-5-(1-methyl-1H-pyrazol-4-yl)phenyl)-1,2,5-thiadiazolidin-3-one 1,1-dioxide]: the IC50 is more than 1000 nM at PTPN1 (i.e., PTP1B) and more than 1000 nM at PTPN2 (i.e., TC-PTP).

With `CC(F)(F)n1cc(-c2ccc(O)c(N3CC(=O)NS3(=O)=O)c2F)cn1` [Compound 516, 5-(3-(1-(1,1-difluoroethyl)-1H-pyrazol-4-yl)-2-fluoro-6-hydroxyphenyl)-1,2,5-thiadiazolidin-3-one 1,1-dioxide], the IC50 at PTPN1 (i.e., PTP1B) was not above 1000 nM; at PTPN2 (i.e., TC-PTP), not above 1000 nM.

As to `O=C1CN(c2c(O)ccc(-c3cc(C4CC4)nn3CC3CC3)c2F)S(=O)(=O)N1` [Compound 239, 5-(3-(3-cyclopropyl-1-(cyclopropylmethyl)-1H-pyrazol-5-yl)-2-fluoro-6-hydroxyphenyl)-1,2,5-thiadiazolidin-3-one 1,1-dioxide], the IC50 was not above 1000 nM at PTPN1 (i.e., PTP1B) and not above 1000 nM at PTPN2 (i.e., TC-PTP).

Regarding `CC1(n2cc(-c3ccc(O)c(N4CC(=O)NS4(=O)=O)c3F)cn2)CC1` [Compound 324, 5-(2-fluoro-6-hydroxy-3-(1-(1-methylcyclopropyl)-1H-pyrazol-4-yl)phenyl)-1,2,5-thiadiazolidin-3-one 1,1-dioxide], the IC50 at PTPN1 (i.e., PTP1B) was not above 1000 nM; on PTPN2 (i.e., TC-PTP), not above 1000 nM.

`Cn1cc(-c2ccc(O)c(N3CC(=O)NS3(=O)=O)c2F)nc1N` [Compound 503, 5-(3-(2-amino-1-methyl-1H-imidazol-4-yl)-2-fluoro-6-hydroxyphenyl)-1,2,5-thiadiazolidin-3-one 1,1-dioxide]: the IC50 on PTPN1 (i.e., PTP1B) was not above 1000 nM; at PTPN2 (i.e., TC-PTP) it was not above 1000 nM.

Consider `O=C1CN(c2c(O)ccc(-c3cc(C(=O)NC4CC4)n[nH]3)c2F)S(=O)(=O)N1` [Compound 460, N-cyclopropyl-5-(3-(1,1-dioxido-4-oxo-1,2,5-thiadiazolidin-2-yl)-2-fluoro-4-hydroxyphenyl)-1H-pyrazole-3-carboxamide], for which the IC50 is not above 1000 nM at PTPN1 (i.e., PTP1B) and more than 1000 nM on PTPN2 (i.e., TC-PTP).

As to `O=C1CN(c2c(O)ccc(-c3cn(Cc4cccnc4)cn3)c2F)S(=O)(=O)N1` [Compound 457, 5-(2-fluoro-6-hydroxy-3-(1-(pyridin-3-ylmethyl)-1H-imidazol-4-yl)phenyl)-1,2,5-thiadiazolidin-3-one 1,1-dioxide], the IC50 on PTPN1 (i.e., PTP1B) is not above 1000 nM; on PTPN2 (i.e., TC-PTP), not above 1000 nM.

For `CN1CCN(c2ccc(-c3ccc(O)c(N4CC(=O)NS4(=O)=O)c3F)cn2)CC1` [Compound 202, 5-(2-fluoro-6-hydroxy-3-(6-(4-methylpiperazin-1-yl)pyridin-3-yl)phenyl)-1,2,5-thiadiazolidin-3-one 1,1-dioxide], the IC50 was not above 1000 nM at PTPN1 (i.e., PTP1B) and not above 1000 nM on PTPN2 (i.e., TC-PTP).

With `Nc1nc2ccc(-c3ccc(O)c(N4CC(=O)NS4(=O)=O)c3F)cc2o1` [Compound 191, 5-(3-(2-aminobenzo[d]oxazol-6-yl)-2-fluoro-6-hydroxyphenyl)-1,2,5-thiadiazolidin-3-one 1,1-dioxide], the IC50 at PTPN1 (i.e., PTP1B) was not above 1000 nM; at PTPN2 (i.e., TC-PTP) it was not above 1000 nM.

With `O=C1CN(c2c(O)ccc(-c3ccc4ncccc4c3)c2F)S(=O)(=O)N1` [Compound 150, 5-(2-fluoro-6-hydroxy-3-(quinolin-6-yl)phenyl)-1,2,5-thiadiazolidin-3-one 1,1-dioxide], the IC50 is not above 1000 nM on PTPN1 (i.e., PTP1B) and not above 1000 nM on PTPN2 (i.e., TC-PTP).

Consider `O=C1CN(c2c(O)ccc(-c3cc(N4CC5(COC5)C4)n[nH]3)c2F)S(=O)(=O)N1` [Compound 466, 5-(3-(3-(2-oxa-6-azaspiro[3.3]heptan-6-yl)-1H-pyrazol-5-yl)-2-fluoro-6-hydroxyphenyl)-1,2,5-thiadiazolidin-3-one 1,1-dioxide], for which the IC50 on PTPN1 (i.e., PTP1B) was not above 1000 nM; at PTPN2 (i.e., TC-PTP), not above 1000 nM.
